From patent US8709303B2, “Dielectric insulation medium” (ABB Research Ltd., priority 2010, dated 2014)

Legend:
[1] = risk for human toxicity, concluded from mammalian HFC tests; settings: concluded from available results of mammalian HFC tests
Description: This can be concluded from the available results of mammalian HFC (hydrofluorocarbon) tests. Also, information available on commercial hydrofluoro monoethers give no evidence of carcinogenicity, mutagenicity, reproductive/developmental effect and other chronic effects of the compounds of the present application.

thermal stability = settings: 175° C. for 30 days
[2] = products include I2; cited from earlier work

Structure (SMILES) | risk for human toxicity [1] | thermal stability (thermal stability) | temperature at which decomposition into hazardous products starts [2]
FC(F)(F)COC(F)(F)F [2,2,2-trifluoroethyl-trifluoromethyl ether (CF3—O—CH2CF3)] | low risk for human toxicity |  | 
COC(F)(F)C(F)(F)F [pentafluoro-ethyl-methyl ether, pentafluoro-ethyl-methyl ether (CH3—O—CF2CF3)] | low risk for human toxicity | thermally stable | 
FC(F)(F)I [CF3I, trifluoroiodomethane (CF3I)] |  |  | around 100 °C
